Data set [1] deals with Caco-2 cells. In words: Microarray gene expression, differentially expressed genes. The data set is classed as cell-based, human. As to conditions: for number of differentially expressed genes: 20 uM H2O2 or 100 uM menadione, all time points up to 24 hours. The protocol:
The Caco-2 human colorectal adenocarcinoma cell line (American Type Culture Collection, Manassas, Va., USA) was grown in Dulbecco's Modified Eagle's Medium supplemented with 10% fetal bovine serum, 1% non-essential amino acids, 1% sodium pyruvate and 1% penicillin/streptomycin, at 37° C., and 5% CO2. Cells were grown until 80% confluency before medium was replaced by DMEM without supplements containing 100 μM menadione or 20 μM H202. For microarray analyses, time-matched control cells were treated in an identical manner without addition of the oxidants. […] At the indicated time points, cells were fixed in 2 ml ice cold methanol for flow cytometry or medium was replaced by 1 ml Trizol for RNA/DNA isolation. Labelling and hybridisation of RNA samples were done according to Agilent's manual for microarrays with minor modifications ((Agilent Technologies, Breda, The Netherlands). RNA (0.5 μg) was transcribed into cDNA and labelled with Cyanine 3 (Cy3) or Cyanine 5 (Cy5). When dye-incorporation was above 7 pmol/μg RNA, 2 μg cRNA of the treated and time-matched control samples was applied on […] 22K and […] 4×44K Agilent Human Oligo Microarray. Slides were scanned on a GenePix 4000B (Molecular Devices, Sunnyvale, USA) with fixed laser power (100%) and PMT gain. For each exposure, two biological repeats per time point were performed. Also swapped Cy3 and Cy5 dye labelling was done, resulting in 72 hybridisations. Images were processed with ImaGene 6.0 software (BioDiscovery Inc., Los Angeles, USA) to quantify spot signals. Irregular spots were flagged. Data from ImaGene were transported into GeneSight software version 4.1.6 (BioDiscovery Inc., Los Angeles, USA). For each spot background was subtracted and flagged spots as well as spots with a net expression level below 20 in both channels were omitted. Data were log base 2 transformed and LOWESS normalization was applied. Expression difference with the time-matched control was calculated and if more than one probe of a gene was present on the array, the replicates were combined while omitting outliers (>2 standard deviations). Only the probe sets present at both types of array platforms were selected. […] The webtool GenePattern (http://genepattern.broad.mit.edu/gp/pages/index.jsf) was used for clustering and visualization of heat maps and cluster patterns.

Data set [2] concerns Caco-2 cells. In words: 8-oxodG analysis (oxidative DNA damage, HPLC-ECD). The data set is classed as cell-based, human. The protocol:
The Caco-2 human colorectal adenocarcinoma cell line (American Type Culture Collection, Manassas, Va., USA) was grown in Dulbecco's Modified Eagle's Medium supplemented with 10% fetal bovine serum, 1% non-essential amino acids, 1% sodium pyruvate and 1% penicillin/streptomycin, at 37° C., and 5% CO2. Cells were grown until 80% confluency before medium was replaced by DMEM without supplements containing 100 μM menadione or 20 μM H202. For microarray analyses, time-matched control cells were treated in an identical manner without addition of the oxidants. Samples were taken after 0.08, 0.25, 0.5, 1, 2, 4, 8, 16, or 24 hours. […] At the indicated time points, cells were fixed in 2 ml ice cold methanol for flow cytometry or medium was replaced by 1 ml Trizol for RNA/DNA isolation. […] Briefly, after extraction, DNA was digested into deoxyribonucleosides by treatment with nuclease P1 [0.02 U/μl] and alkaline phosphatase [0.014 U/μl]. The digest was then injected into a HPLC-ECD-system. […] UV-absorption of dG was simultaneously monitored at 260 nm. Data are presented as means ±SD.

Data set [3] deals with Caco-2 cells. As to conditions: 75 μM H2O2, 30 minutes incubation time; cited from earlier work.
Data set [4] relates to Caco-2 cells. Put plainly: STEM time series analysis of gene expression. Type of data set: cell-based, human. As to conditions: for genes whose time-dependent expression correlates with 8-oxodG levels / genes significantly assigned to clusters of gene expression curves / number of different clusters of gene expression curves: STEM; for genes whose time-dependent expression correlates with 8-oxodG levels: log ratio transformed 8-oxodG levels; for genes significantly assigned to clusters of gene expression curves / number of different clusters of gene expression curves: 20 uM H2O2 or 100 uM menadione. The text has this: For identification of genes co-regulated time-dependently and clustering with the phenotypic parameters, the software tool “Short Time-series Expression Miner” (STEM, version 1.1.2b; http://www.cs.cmu.edu/˜jernst/stem/) was used. […] Profiles are clustered by correlation analyses.

In data set [5] the test system is Caco-2 cells. In words: MetaCore pathway analysis of differentially expressed genes. The data set is classed as cell-based, human. As to conditions: for Number of pathways: significant pathways p<0.01, 20 uM H2O2 or 100 uM menadione. An excerpt:
The p-Values were all calculated using the basic formula for hypergeometric distribution. The p-Value essentially represents the probability for a particular mapping of an experiment to a pathway to arise by chance, considering the numbers of genes in experiment versus the number of genes in the pathway within the “full set” of all genes in the pathway.

Data set [6] deals with Caco-2 cells. Put plainly: ESR spectroscopy of cellular radical formation (DMPO spin trap). The data set is classed as cell-based, human.
Data set [7] deals with Caco-2 cells. In words: Flow cytometric analysis of cell cycle distribution. Type of data set: cell-based, human. As to conditions: for percentage of cells in the S phase: 20 uM H2O2 or 100 uM menadione. The protocol: (§1) The Caco-2 human colorectal adenocarcinoma cell line (American Type Culture Collection, Manassas, Va., USA) was grown in Dulbecco's Modified Eagle's Medium supplemented with 10% fetal bovine serum, 1% non-essential amino acids, 1% sodium pyruvate and 1% penicillin/streptomycin, at 37° C., and 5% CO2. Cells were grown until 80% confluency before medium was replaced by DMEM without supplements containing 100 μM menadione or 20 μM H202. For microarray analyses, time-matched control cells were treated in an identical manner without addition of the oxidants. Samples were taken after 0.08, 0.25, 0.5, 1, 2, 4, 8, 16, or 24 hours. […] At the indicated time points, cells were fixed in 2 ml ice cold methanol for flow cytometry or medium was replaced by 1 ml Trizol for RNA/DNA isolation. Analyses of cell cycle profiles and apoptosis was performed as previously described. Cells were stained with propidium iodide; apoptotic cells were visualised by means of the primary antibody M30 CytoDeath (Roche, Penzberg, Germany) and FITC conjugated anti-mouse Ig as secondary antibody (DakoCytomation, Glostrup, Denmark). Data analysis was done using CellQuest software (version 3.1, Becton Dickinson, San Jose, USA). […] Cell cycle profiles were analyzed using ModFit LT for Mac (version 2.0). Data are presented as means ±SD.
A general note: Flow cytometry measures light scatter and fluorescence of single cells or particles in a stream.

The test system of data set [8] is steroid 5-alpha reductase. As to conditions: inhibition of steroid 5-alpha reductase; cited from earlier work.
Data set [9] relates to Caco-2 cells. Put plainly: Flow cytometric analysis of apoptosis (M30 CytoDeath). The data set is classed as cell-based, human. As to conditions: 20 uM H2O2 or 100 uM menadione. The protocol: as §1
The test system of data set [10] is rat hepatocytes. As to conditions: up to 2 hours after incubation; cited from earlier work.

`OO` [H2O2, hydrogen peroxide]: the “number of differentially expressed genes” value in data set [1] is on record as 1404 genes. Further, the “recovery of the gene expression response” value in [1] (pulse-like response towards H2O2) was at most 1 h. Further, the “8-oxodG level at 16 hours after exposure” value in data set [2] (20 uM H2O2, 16 hours) is on record as “significantly elevated”. Moreover, in data set [2] (20 uM H2O2, compared to control cells), the “time of significantly increased peak in 8-oxodG” value worked out at 15 min. In addition, the “affected genes selected out of 12931 genes” value in data set [3] was 87 genes. Moreover, the “Number of pathways of the gene expression cluster profile” value in [4] (H2O2, STEM cluster 0, p<0.01) came to 4; in [4] (H2O2, STEM cluster 1, p<0.01), 1; in data set [4] (H2O2, STEM cluster 2, p<0.01), 9; in [4] (H2O2, STEM cluster 3, p<0.01) it was 1; in data set [4] (H2O2, STEM cluster 4, p<0.01) it was 3; in data set [4] (H2O2, STEM cluster 5, p<0.01), 4. In addition, the “genes whose time-dependent expression correlates with 8-oxodG levels” value in data set [4] worked out at 8 genes. In data set [4], the “genes significantly assigned to clusters of gene expression curves” value is given as 998 genes. In data set [4], the “number of different clusters of gene expression curves” value stood at 6 clusters. Besides, the results for the “genes clustered by STEM with cell cycle phase” value in [4] (cell cycle phase G1), in data set [4] (cell cycle phase G2/M) and in data set [4] (cell cycle phase S) were 29, 45 and 1, respectively. The “significant pathways of genes clustered with cell cycle phase” value came to 0 in [4] (cell cycle phase G1, p<0.01); 1 in data set [4] (cell cycle phase G2/M, p<0.01); 0 in [4] (cell cycle phase S, p<0.01). In addition, the “induction of the WNT signalling pathway” value in data set [5] (H2O2 exposure) was “immediately”. Moreover, the Number of pathways in [5] (time 0.08 hrs) worked out at 8; in data set [5] (time 0.25 hrs), 15; in data set [5] (time 0.5 hrs), 17; in data set [5] (time 1 hrs), 6; in data set [5] (time 2 hrs), 4; in data set [5] (time 4 hrs), 5. Besides, the results for the Number of pathways in [5] (time 8 hrs), in data set [5] (time 16 hrs) and in data set [5] (time 24 hrs) were 8, 5 and 6, respectively. In addition, the “cellular HO. formation (DMPO.-OH)” value in data set [6] (increasing concentrations of H2O2) was “dose-dependent formation of DMPO.-OH”. For the same molecule, the “number of cells in G1 phase” value in data set [7] (16 h after exposure, compared to control cells) is “significantly decreased”. Moreover, the “percentage of cells in the G1/M phase” value in data set [7] (24 h, 20 uM H2O2) is “significantly increased”. In data set [7] (24 h), the “percentage of cells in the S phase” value is “significantly decreased”.
As to `CC(C)(C)NC(=O)[C@H]1CC[C@H]2[C@@H]3CC[C@H]4NC(=O)C=C[C@]4(C)[C@H]3CC[C@]12C` [finasteride], in data set [8], the “effect on cellular H2O2 production” value is reported as “enhancement of cellular H2O2 production”.
`CC1=CC(=O)c2ccccc2C1=O` [menadione]: in [9], the induction of apoptosis result is “absence of apoptosis”. Besides, the “number of differentially expressed genes” value in data set [1] was 979 genes. Besides, the “recovery of the gene expression response” value in data set [1] (up to 24 hours) is given as “no recovery”. Also, the “time of highest significantly increased level of 8-oxodG” value in data set [2] (100 uM menadione) was determined as 2 h. Besides, the “8-oxodG level at 15 minutes” value in data set [2] (100 uM menadione, 15 minutes, much lower than H2O2 at 15 minutes) is “significant increased level”. In addition, in [4], the “genes whose time-dependent expression correlates with 8-oxodG levels” value came out at 3 genes. For the same molecule, the “genes significantly assigned to clusters of gene expression curves” value in data set [4] was determined as 680 genes. For the same molecule, the “number of different clusters of gene expression curves” value in [4] came out at 4 clusters. In addition, the results for the “genes clustered by STEM with cell cycle phase” value in data set [4] (cell cycle phase G1), in data set [4] (cell cycle phase G2/M) and in [4] (cell cycle phase S) were 311, 1 and 74, respectively. The “significant pathways of genes clustered with cell cycle phase” value in data set [4] (cell cycle phase G1, p<0.01) came out at 15; in data set [4] (cell cycle phase G2/M, p<0.01), 0; in [4] (cell cycle phase S, p<0.01) it was 4. Besides, the “Number of pathways of the gene expression cluster profile” value is recorded as 12 in data set [4] (menadione, STEM cluster 0, p<0.01); 18 in data set [4] (menadione, STEM cluster 1, p<0.01); 4 in [4] (menadione, STEM cluster 2, p<0.01); 8 in data set [4] (menadione, STEM cluster 3, p<0.01). Moreover, the “time after which the WNT signalling pathway is induced” value in data set [5] (menadione exposure) came out at 1 h. Further, the “number of pathways significantly induced exclusively by the oxidant” value in data set [5] (p < 0.01) amounted to 24. The Number of pathways in data set [5] (time 0.08 hrs) worked out at 18; in data set [5] (time 0.25 hrs) it was 16; in [5] (time 0.5 hrs), 14; in [5] (time 1 hrs) it was 15; in data set [5] (time 2 hrs), 8; in data set [5] (time 4 hrs), 10. For the same molecule, the Number of pathways was determined as 14 in data set [5] (time 8 hrs), 19 in [5] (time 16 hrs) and 18 in data set [5] (time 24 hrs). In addition, the “O2.-derived DMPO.-OH signal” value in data set [6] (100 uM, 45 minutes incubation time) was “showed an O2.-derived DMPO.-OH signal”. The “cells of the G1 phase” value in [7] (24 h, 100 uM menadione) is “significant decrease”. The “percentage of cells in the S phase” value in data set [7] (24 h) is reported as “significant increase”. Further, the 8-oxodG formation entry in [10] is “absence of 8-oxodG formation”.

(Values after US20120077704A1, “METHOD FOR SCREENING COMPOUNDS FOR THE TREATMENT OR PREVENTION OF COLON CANCER” (priority 2009, published 2012).)
